Here are results for 1 molecule from paper PMC5077204, “Accumulation of Peptidoglycan O-Acetylation Leads to Altered Cell Wall Biochemistry and Negatively Impacts Pathogenesis Factors of Campylobacter jejuni” (The Journal of Biological Chemistry, 2016).

SMILES strings stand for the structures.

This test has as its target T1, Ape1-His6 (Campylobacter jejuni, UniProt A0A0H3PJ52).
T1 construct: gene CJJ81176_0638; predicted 21-residue signal peptide removed; C-terminal His6 tag (pET28a(+)), expressed in E. coli BL21(DE3)
Briefly: absorbance at […] nm, p-nitrophenol release. It counts as biochemical. The settings on record: 2 mM pNPAc; 50 mM sodium phosphate pH 6.5; room temperature.

T1 sequence (A0A0H3PJ52 entry or part of it): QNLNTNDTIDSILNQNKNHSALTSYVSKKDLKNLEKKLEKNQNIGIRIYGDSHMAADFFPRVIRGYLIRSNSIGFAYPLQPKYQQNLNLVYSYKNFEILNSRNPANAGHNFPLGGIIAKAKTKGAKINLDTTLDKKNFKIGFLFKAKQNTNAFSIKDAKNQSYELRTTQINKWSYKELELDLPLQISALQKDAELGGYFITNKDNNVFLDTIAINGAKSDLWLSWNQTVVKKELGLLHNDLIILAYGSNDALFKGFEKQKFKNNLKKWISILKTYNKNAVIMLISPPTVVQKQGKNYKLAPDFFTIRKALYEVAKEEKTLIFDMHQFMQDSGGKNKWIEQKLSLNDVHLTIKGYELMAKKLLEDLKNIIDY

In the case of `CC(=O)Oc1ccc([N+](=O)[O-])cc1` [p-nitrophenyl acetate], the “absorbance at 405 nm, p-nitrophenol release” value is “The specific activity of purified Ape1 was determined using p-nitrophenylacetate (pNPAc)”.
